{"source": "paper PMC9169222", "about": "“Impedance-Based Phenotypic Readout of Transporter Function: A Case for Glutamate Transporters” (Frontiers in Pharmacology, 2022)", "key": {"EAAT1-3": {"system": "EAAT1-3", "settings": "read-out: Steady-state affinities (Km), ref Arriza et al., 1994, Tzingounis and Wadiche, 2007; cited from earlier work"}, "[1]": {"target": "T1, EAAT2 (JumpIn-EAAT2 cells) (Homo sapiens, UniProt P43004)", "T1 construct": "expressed in transfected cells; host or cells: Jump In T-REx HEK 293", "T1 sequence (P43004 whole entry)": "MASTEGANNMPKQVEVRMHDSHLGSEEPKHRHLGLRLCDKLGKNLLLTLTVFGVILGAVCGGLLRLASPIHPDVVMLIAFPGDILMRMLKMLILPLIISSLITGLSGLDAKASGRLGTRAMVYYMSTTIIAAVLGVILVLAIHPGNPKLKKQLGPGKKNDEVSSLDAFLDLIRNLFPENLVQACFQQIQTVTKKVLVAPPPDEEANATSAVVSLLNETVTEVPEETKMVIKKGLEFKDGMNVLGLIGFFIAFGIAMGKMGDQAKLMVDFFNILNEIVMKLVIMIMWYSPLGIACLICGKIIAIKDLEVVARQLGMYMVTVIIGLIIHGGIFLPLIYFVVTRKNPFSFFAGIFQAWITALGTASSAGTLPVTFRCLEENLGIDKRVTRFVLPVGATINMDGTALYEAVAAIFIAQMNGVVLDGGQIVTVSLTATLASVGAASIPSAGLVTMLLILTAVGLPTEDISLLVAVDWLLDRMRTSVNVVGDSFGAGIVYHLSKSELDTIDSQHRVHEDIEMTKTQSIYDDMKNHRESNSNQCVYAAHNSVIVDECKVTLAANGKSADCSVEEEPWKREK", "experiment": "Impedance-based phenotypic assay (xCELLigence) on JumpIn-EAAT2 cells", "assay_type": "cell-based", "settings": "net AUC 0–120 min, read-out: Substrate pEC50 ± SEM (converted)"}, "[2]": {"target": "EAAT1 (endogenous, MDA-MB-468 cells) (Homo sapiens, UniProt P43003)", "sequence (P43003 whole entry)": "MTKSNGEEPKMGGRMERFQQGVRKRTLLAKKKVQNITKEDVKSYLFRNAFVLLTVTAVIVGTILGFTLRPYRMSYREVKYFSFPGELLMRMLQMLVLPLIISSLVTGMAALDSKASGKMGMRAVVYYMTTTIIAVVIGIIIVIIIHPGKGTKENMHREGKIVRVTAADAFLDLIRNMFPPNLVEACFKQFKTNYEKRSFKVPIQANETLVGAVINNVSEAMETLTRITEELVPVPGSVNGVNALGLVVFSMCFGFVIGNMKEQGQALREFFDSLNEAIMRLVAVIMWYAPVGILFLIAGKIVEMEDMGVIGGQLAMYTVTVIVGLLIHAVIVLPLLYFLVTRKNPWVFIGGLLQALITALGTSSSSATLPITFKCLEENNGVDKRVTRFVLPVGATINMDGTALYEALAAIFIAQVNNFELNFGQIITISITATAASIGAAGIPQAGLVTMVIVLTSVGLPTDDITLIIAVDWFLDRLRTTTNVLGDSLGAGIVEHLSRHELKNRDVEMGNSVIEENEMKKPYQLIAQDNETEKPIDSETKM", "experiment": "Impedance-based phenotypic assay on MDA-MB-468 cells", "assay_type": "cell-based", "description": "MDA-MB-468 cells were cultured as adherent cells in DMEM containing 10% (v/v) FCS, 2 mM Glutamax, 100 IU/ml penicillin and 100 μg/ml streptomycin (culture medium) at 37°C and 5% CO2. Cells were split twice weekly at 1:3–1:4 ratios in 10 cm culture dishes.\n(§1) In short, cells are cultured in medium on gold-plated electrodes in microwell E-plates.\n(§2) Assays were performed at 37°C and 5% CO2 in 96-well PET E-plates in a total volume of 100 µl per well. Prior to cell seeding, the baseline impedance (Z0) was measured in the recording station in 40 µl (two compound additions) or 45 µl (one compound addition) medium in the presence (+) or absence (−) of 1 μg/ml dox. All compounds were diluted in phosphate-buffered saline (PBS) and added in 5 µl per addition using a VIAFLO 96 handheld electronic 96 channel pipette (INTEGRA Biosciences, Tokyo, Japan). When DMSO was used as a solvent for a compound, the final amount of DMSO was kept at 0.1% per well and was included in the vehicle (PBS/DMSO). All conditions were tested at two technical replicates per plate.\n(§3) Experimental data was recorded using RTCA Software v2.0 or v2.1.1 (ACEA Biosciences). In the RTCA Software CI values were normalized to the time point prior to substrate/agonist stimulation resulting in normalized Cell Index (nCI) values. The nCI data were exported and subsequent analyses and data visualizations were done using GraphPad Prism v9 (GraphPad Software, San Diego, CA, United States). In all experiments, nCI values of vehicle-only conditions were subtracted from all other conditions to correct for vehicle-induced, substrate-independent effects. […] The potency values of substrates and inhibitory potencies of EAAT inhibitors were determined by fitting the net AUC data to a sigmoidal concentration-effect curve with a variable slope."}, "[3]": {"target": "T2, EAAT1 (JumpIn-EAAT1 cells) (Homo sapiens, UniProt P43003)", "T2 construct": "expressed in transfected cells; host or cells: Jump In T-REx HEK 293", "T2 sequence (P43003 whole entry)": "as above", "experiment": "Impedance-based phenotypic assay (xCELLigence) on JumpIn-EAAT1 cells", "assay_type": "cell-based", "settings": "net AUC 0–120 min", "description": "as §1, §2\nTransiently transfected JumpIn-EAAT1 cells were detached using only PBS/EDTA. The E-plate was left to rest at room temperature for 30 min prior to replacement in the recording station at 37°C and 5% CO2. Cell growth was recorded overnight for 22 h. If a pretreatment was required for the experiment, the cells were pretreated after 22 h with either a concentration of inhibitor or vehicle (PBS/DMSO) and cells were monitored for 60 min. For GPCR antagonist experiments, a maximum concentration of LY341495 (1 µM) was used. […] After the pretreatment, cells were stimulated with substrate or vehicle (PBS). […] After stimulation the impedance was measured for at least 2 h. […] Properly washed plates were re-used up to two times.\nas §3"}, "1321N1 cells": {"system": "1321N1 cells", "experiment": "Impedance-based phenotypic assay on 1321N1 cells", "assay_type": "cell-based, human", "settings": "1 mM", "description": "Label-free whole-cell assays, based on cell-induced changes in impedance, were performed using the xCELLigence real-time cell analyzer (RTCA) system (ACEA Biosciences, San Diego, CA, United States) as described previously ([Vlachodimou et al., 2019]; [Sijben et al., 2021a], [2021b]). In short, cells are cultured in medium on gold-plated electrodes in microwell E-plates. Per well impedance is continuously measured at 10 kHz and is converted to the unitless parameter Cell Index (CI) by the following formula: CI=(Zi−Z0)Ω/15Ω where Zi is the impedance at any given time point and Z0 is the baseline impedance measured at the start of each experiment ([Kho et al., 2015]).\nAssays were performed at 37°C and 5% CO2 in 96-well PET E-plates in a total volume of 100 µl per well. Prior to cell seeding, the baseline impedance (Z0) was measured in the recording station in 40 µl (two compound additions) or 45 µl (one compound addition) medium in the presence (+) or absence (−) of 1 μg/ml dox. […]\nExperimental data was recorded using RTCA Software v2.0 or v2.1.1 (ACEA Biosciences). […] The potency values of substrates and inhibitory potencies of EAAT inhibitors were determined by fitting the net AUC data to a sigmoidal concentration-effect curve with a variable slope."}, "[4]": {"system": "EAAT1 / mGluR2 (JumpIn-EAAT1-mGluR2 cells)", "experiment": "Impedance-based TRACT assay (xCELLigence) on JumpIn-EAAT1-mGluR2 cells", "assay_type": "cell-based, human", "settings": "for Substrate pEC50 ± SEM (AUC = 0–15 min): JumpIn-EAAT1-mGluR2, +dox"}, "[5]": {"target": "T3, EAAT1 / mGluR2 (JumpIn-EAAT1-mGluR2 cells) (Homo sapiens, UniProt P43003)", "T3 construct": "FLAG-tag (N); expressed in transfected cells; host or cells: Jump In T-REx HEK 293 (JumpIn-EAAT1), transiently transfected with mGluR2 cDNA", "T3 sequence (P43003 whole entry, the tested form may be a part)": "as the sequence (P43003 whole entry) above", "experiment": "Impedance-based TRACT assay (xCELLigence) on JumpIn-EAAT1-mGluR2 cells", "assay_type": "cell-based"}, "[6]": {"system": "JumpIn-EAAT1-LifeAct-GFP cells", "experiment": "Automated confocal microscopy of the actin cytoskeleton (cell spreading)", "assay_type": "cell-based, human", "settings": "dox-induced cells, 1 mM, within 2 h", "description": "For visualization of the actin cytoskeleton, JumpIn-EAAT1 cells were transduced with a lentiviral GFP-LifeAct cDNA expression vector and were maintained in culture medium containing 2 μg/ml puromycin to select for successfully transduced cells.\nJumpIn-EAAT1-LifeAct-GFP cells were seeded at 20,000 cells/well on a SCREENSTAR black-walled clear-bottom 96-well culture plate in 90 µl culture medium and grown for 24 h at 37°C and 5% CO2. […] Microscopy was performed on a Nikon Eclipse Ti2 C2+ confocal microscope (Nikon, Amsterdam, Netherlands). This system was equipped with a 37°C incubation chamber, an automated xy-stage, an integrated Perfect Focus System (PFS) and 408, 488, and 561 nm lasers. The system was controlled by Nikon’s NIS software. All images were acquired using a Plan-Apochromat ×20 objective with 0.75 NA, at a resolution of 512 × 512 pixels."}}, "note": "Structures can show the parent of a compound that is named as a salt. Where two headings read alike, the source gives them in different places. Marks after values point to notes of the source that are not given here.", "data": [{"smiles": "N[C@@H](CCC(=O)O)C(=O)O", "note": "[L-glutamate, L-glutamic acid monosodium salt monohydrate]", "values": [{"measurement": "Km", "setting": "EAAT1-3", "result": "~20", "unit": "µM"}, {"measurement": "EC50", "setting": "[1]; JumpIn-EAAT2, +dox", "result": 251, "unit": "µM"}, {"measurement": "EC50", "setting": "[1]; JumpIn-EAAT2, −dox", "result": 158, "unit": "µM"}, {"measurement": "Substrate pEC50 ± SEM", "setting": "[2]", "result": "4.0 ± 0.2 ^b"}, {"measurement": "Substrate pEC50 ± SEM", "setting": "[3]; JumpIn-EAAT1, +dox", "result": "3.4 ± 0.0"}, {"measurement": "EC50", "setting": "[3]; JumpIn-EAAT1, −dox, read-out: Substrate pEC50 ± SEM (converted)", "result": 63.1, "unit": "µM"}, {"measurement": "Cellular response within 180 min", "setting": "1321N1 cells", "result": "did not show a substantial cellular response"}, {"measurement": "Substrate pEC50 ± SEM (AUC = 0–15 min)", "setting": "[4]; no inhibitor, net AUC 0–15 min", "result": "<3.0"}, {"measurement": "Substrate pEC50 ± SEM (AUC = 0–15 min)", "setting": "[4]; pretreated 1 h with 10 µM UCPH-101, net AUC 0–15 min", "result": "3.7 ± 0.2"}, {"measurement": "Substrate pEC50 ± SEM (AUC = 0–120 min)", "setting": "[4]; JumpIn-EAAT1-mGluR2, −dox, no inhibitor, net AUC 0–120 min", "result": "4.3 ± 0.1"}, {"measurement": "EC50", "setting": "[5]", "result": 501, "unit": "µM"}, {"measurement": "Change in cell morphology after stimulation", "setting": "[6]", "result": "drastically extend their actin cytoskeleton outward"}]}]}
